The text below walks through data of patent US9675607B2, “Epimorphic regeneration and related hydrogel delivery systems” (Northwestern University, priority 2013, dated 2017).

Entries after “also recorded” stand apart in the source; their conditions may differ.

In one data set the test system is Swiss Webster (SW) mice. Description: Ear hole closure in ear-punched Swiss Webster mice. Format: in vivo, mouse. To be noted: SW mice given 2 mg/ml drug/gel 3 times plus the inhibitor. From the text:
Inbred mouse strains were used to study the effect of a small molecule inhibitor of PHD on in-vitro and in-vivo levels of HIF1a, and the impact of this on quantitative regenerative ear hole closure phenotypes. In animal studies, 2.1 mm ear hole punch wounds were created and a 1,4-DPCA-containing hydrogel was subcutaneously implanted in the back of the neck of mice at multiple time-points. Healing was monitored by measuring hole diameters. Endpoints of the study were previously determined to be 30+ days post-injury and included key indices of tissue regeneration such as blastema formation, epithelial, dermal, and cartilaginous wound closure with hair follicle replacement plus multiple molecular markers of cellular de-differentiation, re-differentiation, and stem cell state. These parameters were determined by physical measurements of wound closure, standard tissue histology and histomorphometry, and gene expression using quantitative immunohistochemistry, western analysis, and qPCR. The experimental groups were coded and different laboratory personnel were involved in injuries, injections, phenotyping and data analysis. […]

The subject of a further data set is SW ear tissue. In words: Histology, immunostaining and qPCR of injured ear tissue of SW mice. The format is in vivo, mouse. As for the experimental part:
(§1) Total RNA from ear fibroblast-like cells or ear hole donuts was prepared with Qiagen RNeasy kit (Qiagen) according to the manufacturer's guidelines. First strand cDNA was synthesized from 1 μg of RNA using the Superscript First-Strand Synthesis System (Invitrogen, Carlsbad, Calif.) according to the manufacturer's instructions. qPCR was performed with SYBR green PCR Master Mix (Applied Biosystems, Life Technologies). In brief, a 20 μl mixture was used containing 10 μl SYBR Green PCR master mix, 1 μl forward and reverse primer, 6 μl sterile water, and 2 μl of complementary DNA template. A negative control (non-template control) was performed in each run. The real-time PCR was performed using a Quant Studio 6 Flex (Applied Biosystems) according to the manufacturer's instructions. All data were normalized to 18S rRNA and quantitative measurements were obtained using the ΔΔCT method. (The primers used are listed with the kit, but not shown, here.
The methods used were performed as previously described. Tissue from normal ears were fixed with Prefer fixative (the active ingredient is glyoxal) (Anatech) overnight and then washed in H2O. Tissue was embedded in paraffin and 5-μm thick sections cut. Before staining, slides were dewaxed in xylene and rehydrated. Antigen retrieval was performed by autoclaving for 20 min in 10 mM Sodium Citrate, pH 6.0. Tissue sections were then treated with 3% H2O2 and nonspecific binding was blocked with 4% BSA (A7906; Sigma) for 1 h. For immunocytochemistry staining, primary ear skin fibroblasts were grown on coverslips in DMEM with 10% FBS at 37° C. in a humidified 5% CO2 incubator. The coverslips were rinsed with 1×PBS, the cells were fixed in cold methanol (−20° C.) for 10 min, rinsed with 1×PBS, treated with 0.1% Triton-X100, and then incubated with the appropriate primary and secondary antibodies (Table 1). Photomicrographs were produced using the fluorescent microscope (Olympus AX70) and a Spot camera with bundled software.
For histological stains, tissue sections were treated the same as above and then stained with Hematoxylin (Leica Microsystems, #3801562) and Eosin (Leica Microsystems, #3801602), Picro-Sirius Red (Poly Scientific, cat. # s2365), Alcian blue (1% in 3% acetic acid (Polyscience, Bay Shore, N.Y., cat # S111A), or toluidine blue O (Allied Chemical, Morristown, N.J., cat. # NA0652), counterstained with Kernechtrot (Polyscience, Bay Shore, N.Y., cat # S248). The slides were washed, […], cleared with Xylene and coverslipped with Permount mounting media (Fisher, SP15-500). Staining was visualized using an Olympus (AX70) microscope in bright field for H&E and under polarized light for Picro-Sirius Red.
For quantitation of IHC signal, the method used was previously described. Briefly, we used ImagePro v4.0 for image analysis by selecting positive staining from multiple areas in the sections. The number of “positive staining” pixels was determined. The area was expressed in square microns and the final data were expressed as IHC staining signal per square micron. The mean of 2-6 samples were plotted and standard errors calculated.

The subject of data set [1] is HIF target gene transcription. In words: RT-PCR of HIF target gene transcription in treated B6 cells. Format: cell-based, mouse. As for the experimental part: as §1
For the next data set, the system named is HIF1a. Description: HIF1a levels in injured ear tissue of SW mice after subcutaneous drug/gel injection (Western, IHC). Format: in vivo, mouse. Particulars: single 100 ul injection, 2 mg/ml drug microcrystals; Western and IHC. The protocol:
The kinetics of the effectiveness of the drug/gel construct in the injured ear was examined to determine how often re-injection would be necessary. After earpunching, a single injection (100 ul) of hydrogel containing either 2 mg/ml drug microcrystals (Gd) or 0 mg/ml drug microcrystals (G0) was given plus an un-injected group. Ears were harvested daily for 5 days (FIG. 3D).
(§2) Ear tissue samples (3 ear hole donuts/ear from 3 separate mice) were homogenized in radio-immunoprecipitation assay buffer (50 mM Tris-HCl pH 7.6, containing 150 mM NaCl,1% Triton X-100, 1% sodium deoxycholate, 1 mM EDTA and 0.1% SDS) with 1 mM PMSF and a protease inhibitor cocktail (Sigma). Samples with equal amounts of protein (about 40 μg) were loaded into a NuPAGE 4-12% Bis-Tris gradient gel or 8% Bis-Tris gel (Life Technologies, Grand Island, N.Y.), electrophoresed and then electro-transferred onto a PVDF-FL membrane (Immobilon, Billerica, Mass.).
The methods used were performed as previously described. […]
For quantitation of IHC signal, the method used was previously described. […] The number of “positive staining” pixels was determined. The area was expressed in square microns and the final data were expressed as IHC staining signal per square micron. The mean of 2-6 samples were plotted and standard errors calculated. […]

The next data set has as its system HIF2a. In words: HIF2a levels in injured ear tissue of SW mice (Western). The format is in vivo, mouse. As for the experimental part:
as §2
Mice were injected subcutaneously at the base of the neck with 100 μL of 10% (w/v) 1:1 (w/w) ratio of P8Cys (with or without 1,4-DPCA drug crystal) to P8NHS hydrogel prepared in PBS. Each component was kept cold and mixed just prior to injection. At different time points, mice were euthanized and tissues were removed for protein and RNA analysis.

Another data set is described as follows: Solubility of 1,4-DPCA. The format is physicochemical.
Data set [2] relates to hydroxylases (PHDs and FIH). Particulars: cited from earlier work.
The next data set has as its system collagen hydroxylation. To be noted: rats given this compound; cited from earlier work.
In a further data set the test system is prolyl 4-hydroxylase. Particulars: cited from earlier work.
The next data set relates to diabetic wound. To be noted: applied directly to the wound site; cited from earlier work.
In another data set the test system is 3T3 fibroblasts. In words: Cell viability, ISO 10993 neutral red. The format is cell-based. To be noted: 24 hours, positive control. As for the experimental part:
Viability of 3T3 fibroblasts exposed to drug microcrystals was quantified using ISO 10993. Briefly, different dilutions of drug microcrystals in cell culture medium were added to a subconfluent monolayer of 3T3 fibroblasts (n=3). The cells were cultured for 24 hours at 37° C., 5% CO2, and >90% RH and then washed with PBS. Neutral red solution (0.4%) in DMEM was added, and the cells were stained for 3 hours. Following removal of the staining solution and washing the cells with PBS, the cells were destained using 50% ethanol, 49% ddH2O and 1% glacial acetic acid. Following 10 minutes of agitation, absorbance was measured at 540 nm and used to quantify cell viability. […] Culture medium was used as a negative control. Cell culture medium consisted of high glucose DMEM substituted with L-glutamine, penicillin/streptomycin, 10% v/v newborn calf serum and 20 mM HEPES.

Where [3] appears, read: day 7, 1,4-DPCA drug/gel-treated SW mice plus inhibitor.

On to Endostatin, for which, in the data set with Swiss Webster (SW) mice, the “effect on ear hole closure induced by 1,4-DPCA drug/gel” value is “almost complete blockage of ear hole closure”. Moreover, in the data set on SW ear tissue (setting [3]), the “HIF1a, CD31 and OCT3/4 staining” value was “near complete absence”; the “MMP-9, MPO and neutrophil specific-marker” value is on record as “did not inhibit; also recorded: to a lesser degree”. The laminin staining result with SW ear tissue (day 7, 1,4-DPCA drug/gel-treated SW mice, endostatin compared with siHif1a_3) is recorded as “greater degree of inhibition”.

With `O=C(O)c1c[nH]c2c(ccc3cccnc32)c1=O` [1,4-DPCA, 1,4-dihydrophenonthrolin-4-one-3-carboxylic acid], the “HIF target genes Vegf, Hmox1, Ldh-a, Pgk, Pdk1, Glut1 mRNA” value in data set [1] is “specifically increased”. Also, in the data set on HIF1a, the “day on which HIF1a levels in the ear begin to rise” value was found to be 1 days and the “days of peak HIF1a levels in the ear post-injection” value lay in the range of 3 to 4 days. Moreover, in the data set with HIF2a, the “HIF2a in ear tissue in-vivo” value is given as “barely affected”. In the data set on SW ear tissue (SW ear tissue, immunostaining), the “Laminin (basement membrane) in ear tissue” value is recorded as “reduced”; the “MMP9 in ear tissue” value is recorded as “increased”; the “inflammatory cell markers MPO and Ly6G in ear tissue” value is listed as “increased”. For the same compound, in the data set “Solubility of 1,4-DPCA”, the solubility in water result is “low solubility”. In addition, the “inhibition of the hydroxylases in-vitro and in-vivo at the protein level” value in data set [2] is recorded as “potent inhibitor”. For the same compound, in the data set on collagen hydroxylation, the “collagen hydroxylation and collagen deposition” value is “inhibition of collagen hydroxylation and a reduction in collagen deposition”. The “inhibition of prolyl 4-hydroxylase” value with prolyl 4-hydroxylase is “selective and potent inhibitor”.

With `CC(=O)N(O)CCCCCNC(=O)CCC(=O)N(O)CCCCCNC(=O)CCC(=O)N(O)CCCCCN` [DFX, desferrioxamine B], the diabetic wound healing entry in the data set with diabetic wound is “enhance diabetic wound healing”.

Consider `CCCCCCCCCCCCOS(=O)(=O)[O-].[Na+]` [SDS], for which the “IC50, cell viability” value in the data set on 3T3 fibroblasts is “in the acceptable range”.

As for `COC(=O)CNC(=O)C(=O)OC` [DMOG, dimethyloxallyl glycine], the diabetic wound healing entry with diabetic wound was “enhance diabetic wound healing”.
